Results published in patent US12280090B2, “Antimicrobial peptides” (priority 2018, dated 2025).
Read-outs that look alike come from different tables or passages of the source. Peptide text beside a SMILES is read from it.

What was measured:
Type in all cases: cell-based
[1] = tested on: Escherichia coli: ATCC 9723H
Procedure: (§1) Microtiter broth dilution assays. HP2, HP3, and HP5 peptides are comprised of novel sequences that have not yet been described in the AMP literature. A common method for establishing antimicrobial activity of peptides is to perform microtiter broth assays. Microtiter broth dilution methods were implemented for determination of the minimum inhibitory concentration (MIC) and minimum bactericidal concentration (MBC). HP3 and HP5 were tested in addition to Ranatuerin-1/HP4 peptide as a positive control. HP2 could not be tested because multiple peptide synthesis attempts failed. The human cathelicidin, LL-37^30 was used as an additional positive control, and an unrelated similarly sized cationic peptide from the T. pallidum protein Tp0751 was used as a negative control. The potential AMPs were tested against bacteria representative of all three types of known cell envelope (Gram-positive, negative, and the complex and unique mycobacterial cell wall/envelope), given that a major mechanism used by AMPs is cell wall/membrane targeting.
(§2) Microtiter broth dilution assays. To test for antimicrobial activity, HP3, HP4/Ranatuerin-1, and HP5, peptides were synthesized by GenScript (Piscataway, New Jersey, USA). HP2 was not tested because the service provider was unable to synthesize this peptide despite multiple attempts. An unrelated, similarly-sized peptide from the Treponema pallidum protein Tp0751^55 was used as a negative control and the human cathelicidin, LL-37^30, was included as a positive control. Peptides were dissolved in filter-sterilized ultrapure water and tested for sterility by plating on non-selective agar plates followed by a 48 h incubation at 37° C. Two-fold serial dilutions of each peptide were prepared to obtain a series corresponding to ten times the required testing concentrations (2560, 1280, 640, 320, 160, 80, 40, 20, 10, and 5 μg/mL)^29.
(§3) Microtiter broth dilution methods were implemented for determination of the minimum inhibitory concentration (MIC) and minimum bactericidal concentration (MBC) of the four putative AMPs and the negative control peptide using procedures adapted from the R.E.W. Hancock Laboratory for cationic AMPs^29 and the CLSI methods for dilution antimicrobial susceptibility tests^56.
(§4) To assess antimicrobial activity across a diverse range of bacterial species, colonies were cultured overnight on Mueller Hinton agar plates (MHA; +5% sheep blood for S. pyogenes)^56 from frozen glycerol stock. Bacteria tested include Gram-negative rods (Escherichia coli: ATCC 9723H; Pseudomonas aeruginosa: ATCC 10148), Gram-positive cocci (Staphylococcus aureus: ATCC 6538P; Streptococcus pyogenes: unknown strain, hospital isolate), and Mycobacterium smegmatis (MC^2155; classified as neither Gram-positive nor Gram-negative). Bacterial suspensions were prepared by placing 3-5 morphologically similar colonies from the grown plate into sterile glass culture tubes containing 2 mL of Mueller Hinton Broth (MHB; +5% lysed horse blood for S. pyogenes) 56. Microbial inoculums from bacterial suspensions were prepared through a spectrophotometric adjustment of turbidity to 0.08-0.1 at 600 nm to achieve a turbidity equivalent to that of a 0.5 McFarland standard (1-2×10^8 CFU/mL)^29. The standardized bacterial inoculums were then diluted in MHB to obtain final cell densities of approximately […].
(§5) Ninety-six-well microtiter plates (Fisher Cat. No. CS003790; Nepean, Ontario, Canada) were prepared with 100 μL of E. coli, P. aeruginosa, S. aureus, S. pyogenes, or M. smegmatis bacterial suspension (5×10^5 CFU/mL) dispensed into each well of columns 1 through 11. Eleven microliters of the 10×AMP dilution series for all four peptides were added to each well from column 1 (2560 μg/mL) to column 10 (5 μg/mL) in all plates. Column 11 functioned as a positive control for bacterial growth in the absence of AMPs. Column 12 in each plate contained 100 μL of MHB as a sterility control (+5% lysed horse blood for S. pyogenes)^56. […]

[2] = tested on: Pseudomonas aeruginosa: ATCC 10148
Procedure: as §1, §2, §3, §4, §5

[3] = tested on: Staphylococcus aureus: ATCC 6538P
Procedure: as §1, §2, §3, §4, §5

[4] = tested on: Streptococcus pyogenes: unknown strain, hospital isolate; conditions: for inhibitory or bacteriostatic activity: S. pyogenes; for MBC / MIC: unknown strain, hospital isolate
Procedure: as §1, §2, §3, §4, §5

| MIC ([1]; ATCC 9723) | MIC ([2]; ATCC 10148) [µg/mL] | MIC ([3]; ATCC 6538) | MIC [4] [µg/mL] | MIC ([1]; E. coli, listed as H4) [µg/mL] | MIC ([3]; S. aureus, listed as H4) [µg/mL] | Compound | MBC ([1]; ATCC 9723) [µg/mL] | inhibitory or bacteriostatic activity ([1]; E. coli) | MBC ([2]; ATCC 10148) [µg/mL] | inhibitory or bacteriostatic activity ([2]; P. aeruginosa) | MBC ([3]; ATCC 6538) [µg/mL] | inhibitory or bacteriostatic activity ([3]; S. aureus) | inhibitory or bacteriostatic activity [4] | MBC [4] [µg/mL] | MBC ([2]; P. aeruginosa) [µg/mL] | MIC ([2]; P. aeruginosa) [µg/mL] |
| --- | --- | --- | --- | --- | --- | --- | --- | --- | --- | --- | --- | --- | --- | --- | --- | --- |
| >256 µg/mL | >256 | >256 µg/mL | >256 |  |  | CC(C)C[C@H](NC(=O)[C@H](CS)NC(=O)[C@@H]1CCCN1C(=O)[C@H](CCCCN)NC(=O)[C@H](CCCNC(=N)N)NC(=O)[C@@H]1CCCN1C(=O)[C@H](Cc1ccccc1)NC(=O)[C@H](CO)NC(=O)[C@H](CCCCN)NC(=O)[C@@H](NC(=O)[C@H](Cc1c[nH]c2ccccc12)NC(=O)[C@H](CS)NC(=O)CNC(=O)[C@H](CO)NC(=O)[C@H](CC(C)C)NC(=O)[C@@H](N)CO)[C@@H](C)O)C(=O)N[C@@H](CCCNC(=N)N)C(=O)N[C@@H](CC(N)=O)C(=O)N[C@@H](CCCNC(=N)N)C(=O)O [HP3, SLSGCWTKSFPRKPCLRNR] (H-SLSGCWTKSFPRKPCLRNR-OH; N-terminus and C-terminus assumed) | >256 | no effect | >256 | no effect | >256 | no effect | no effect | >256 |  |  |
| 48 µM | >256 | 97 µM | >256 | 128 | 256 | CC[C@H](C)[C@H](NC(=O)[C@H](CCCCN)NC(=O)[C@H](CS)NC(=O)[C@H](C)NC(=O)[C@@H](NC(=O)[C@H](Cc1ccccc1)NC(=O)CNC(=O)[C@H](CC(C)C)NC(=O)CNC(=O)[C@@H](NC(=O)[C@H](CCCCN)NC(=O)CNC(=O)[C@H](CC(C)C)NC(=O)[C@H](CC(N)=O)NC(=O)[C@H](CCCCN)NC(=O)[C@H](CC(C)C)NC(=O)[C@@H](NC(=O)[C@H](CO)NC(=O)[C@H](CC(C)C)NC(=O)[C@H](CCSC)NC(=O)[C@@H](N)CO)C(C)C)C(C)C)C(C)C)C(=O)N[C@@H](CC(N)=O)C(=O)N[C@@H](CCCCN)C(=O)N[C@@H](CCC(N)=O)C(=O)N[C@@H](CS)C(=O)O [HP4] (H-SMLSVLKNLGKVGLGFVACKINKQC-OH; N-terminus and C-terminus assumed) |  |  | >256 | no effect |  |  | no effect | >256 |  |  |
|  |  |  |  |  |  | CC[C@H](C)[C@H](NC(=O)[C@H](CCCCN)NC(=O)[C@H](CCC(=O)O)NC(=O)[C@H](CCCCN)NC(=O)[C@H](CO)NC(=O)[C@H](CCCCN)NC(=O)[C@H](CCCNC(=N)N)NC(=O)[C@H](Cc1ccccc1)NC(=O)[C@H](Cc1ccccc1)NC(=O)[C@H](CC(=O)O)NC(=O)CNC(=O)[C@H](CC(C)C)NC(=O)[C@@H](N)CC(C)C)C(=O)NCC(=O)N[C@@H](CCCCN)C(=O)N[C@@H](CCC(=O)O)C(=O)N[C@@H](Cc1ccccc1)C(=O)N[C@@H](CCCCN)C(=O)N[C@@H](CCCNC(=N)N)C(=O)N[C@H](C(=O)N[C@H](C(=O)N[C@@H](CCC(N)=O)C(=O)N[C@@H](CCCNC(=N)N)C(=O)N[C@H](C(=O)N[C@@H](CCCCN)C(=O)N[C@@H](CC(=O)O)C(=O)N[C@@H](Cc1ccccc1)C(=O)N[C@@H](CC(C)C)C(=O)N[C@@H](CCCNC(=N)N)C(=O)N[C@@H](CC(N)=O)C(=O)N[C@@H](CC(C)C)C(=O)N[C@H](C(=O)N1CCC[C@H]1C(=O)N[C@@H](CCCNC(=N)N)C(=O)N[C@H](C(=O)N[C@@H](CCC(=O)O)C(=O)N[C@@H](CO)C(=O)O)[C@@H](C)O)C(C)C)[C@@H](C)CC)C(C)C)[C@@H](C)CC [LL37 + ve_AcOH, reference compound] |  |  |  |  |  |  |  |  | >256 | >256 |
